Data on 26 compounds can be found in ChEMBL document CHEMBL1201862, “PubChem BioAssay data set” (2004).

Activity calls are given as the source filed them. Rule as the data show it, for most assays here: actives have a measured EC50 and inactives only a lower limit.

Type in all cases: functional
In test [1] the target is T1, Heat shock factor protein 1 (Mus musculus, UniProt P38532).
T1 sequence (P38532 whole entry): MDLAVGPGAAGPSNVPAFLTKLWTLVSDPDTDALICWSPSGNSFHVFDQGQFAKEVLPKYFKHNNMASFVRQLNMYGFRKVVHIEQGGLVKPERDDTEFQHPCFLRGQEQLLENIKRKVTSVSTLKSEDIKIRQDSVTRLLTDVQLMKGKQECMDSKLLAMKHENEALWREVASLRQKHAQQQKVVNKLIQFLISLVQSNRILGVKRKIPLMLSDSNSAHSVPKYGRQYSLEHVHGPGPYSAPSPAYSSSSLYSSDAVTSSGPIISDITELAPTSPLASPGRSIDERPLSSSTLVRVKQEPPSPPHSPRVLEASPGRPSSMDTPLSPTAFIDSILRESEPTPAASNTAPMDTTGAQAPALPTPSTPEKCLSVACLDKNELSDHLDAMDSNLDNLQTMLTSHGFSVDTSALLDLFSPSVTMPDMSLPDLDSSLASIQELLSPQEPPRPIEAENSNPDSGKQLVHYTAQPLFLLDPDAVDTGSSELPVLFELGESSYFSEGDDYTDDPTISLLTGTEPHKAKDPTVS
Put plainly: enhancement of HSF1-driven luciferase signal – cell-based, NIH3T3, luminescence, dose retest, confirmation (AID 435004).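 Also: stress induced by proteasome inhibitor MG132 added 30 min after compound; luciferase reporter driven by HSF1 response element in NIH3T3 cells; actives raise luminescence as potentiators of the MG132 stress response.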

A short description of test [2]: Luminescence Cell-Based Dose Confirmation HTS to Identify Activators of 5'UTR Stem-Loop Driven Alpha-Synuclein mRNA Translation in H4 Neuroglioblastoma Cells. [Related pubchem assays: 1829 (Project Summary), 1814 (Primary HTS)].
Test [3] in a line: Luminescence Cell-Based Dose Response HTS to Identify Activators of Luciferase Translation or Activity in H4 […] Cells. [Related pubchem assays: 1829 (Project Summary), 1814 (Primary HTS)].
The subject of a further test is H4. The experiment in a line: Luminescence Cell-Based Dose Response HTS to Identify Activators of 5'UTR Stem-Loop Driven Prion Protein mRNA Translation in H4 Neuroglioblastoma Cells. [Related pubchem assays: 1829 (Project Summary), 1814 (Primary HTS)]. As to conditions: Homo sapiens.
Test [4] deals with T2, Calpain-2 catalytic subunit (Sus scrofa, UniProt P43367).
T2 sequence (P43367 whole entry): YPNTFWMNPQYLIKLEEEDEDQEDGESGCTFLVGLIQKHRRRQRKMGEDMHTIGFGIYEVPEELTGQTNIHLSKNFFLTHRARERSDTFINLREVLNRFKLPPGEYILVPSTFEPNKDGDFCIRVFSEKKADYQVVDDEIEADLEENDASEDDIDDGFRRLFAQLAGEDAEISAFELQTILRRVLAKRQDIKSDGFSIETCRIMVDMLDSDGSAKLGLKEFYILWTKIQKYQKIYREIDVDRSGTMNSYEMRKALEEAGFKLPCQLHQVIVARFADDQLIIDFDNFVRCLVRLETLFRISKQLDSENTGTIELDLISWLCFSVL
Put plainly: m-calpain protease blockers, concentration series – biochemical, fluorogenic peptide substrate, dose response (AID 1420).

A short description of test [5]: viability of uninfected HEp-2 cells – cell-based, HTS, cytotoxicity control for RSV inhibitor project, dose response (AID 2410). The note with it: human respiratory syncytial virus.

Usually EC50 stands for the concentration giving half of the maximal effect. For orientation: IC50 means the point on the concentration scale where inhibition reaches its midpoint. A high value points to weaker potency. Broadly, the CC50 is the concentration at which the toxic effect on the cells reaches its halfway point.

Take `CCOc1cc(/C=C2/SC(=S)N(CC3CCCO3)C2=O)ccc1O` (centres undefined): the EC50 in test [1] is > 260 µM (inactive).

As for `CCNc1ccc(S(=O)(=O)N(C)C)cc1NCC(=O)Nc1ccccc1Br`, the EC50 in test [1] was > 260 µM (inactive).

On to `N#Cc1cnc2sc3ccccc3n2c1=N`, for which the EC50 in test [2] is 15.9 µM (active); in test [3], 10.6 µM (active); in the test with H4, 11.7 µM (active).

With `COc1ccc(N2CCN(C(=O)Cn3cnc4c(cnn4-c4ccccc4)c3=O)CC2)cc1`, the IC50 in test [4] was 4.18 µM (not active).

For `CCc1nc2c(sc3nc4c(cc32)COC(C)(C)C4)c(=O)n1Cc1ccco1`, in test [1], the EC50 is > 260 µM (inactive).

Regarding `CC(C)(C)c1ccc(C(=O)NCc2ccco2)cc1`, the values for the EC50 (in test [2]; in test [3]; in the test with H4) were 20.9 µM (active), 31 µM (active) and 13.7 µM (active), respectively.

Consider `O=C(CSc1n[nH]c(-c2ccccc2)n1)c1ccccc1`, for which the values for the EC50 (in test [2]; in test [3]; in the test with H4) were 15.3 µM (active), 5.83 µM (active) and 6.22 µM (active), respectively.

Turning to `Cc1ccc(NC(=O)CNC(=O)c2ccccc2F)cc1Cl`, the IC50 in test [4] is given as 37.6 µM (not active).

As for `COc1ccc(-c2cc3ccc(OCC(C)=O)cc3oc2=O)cc1`, the EC50 in test [1] was > 260 µM (inactive).

Regarding `O=c1c(Cl)cc(Cl)nn1-c1ccccc1`, the EC50 in test [1] was 24.7 µM (active).

For the compound `CCOc1ccc(N(CC(=O)Nc2cccc(OC)c2)S(=O)(=O)c2c(C)noc2C)cc1`, in test [4], the concentration for half-maximal inhibition (IC50) is 5.86 µM (not active).

In the case of `Cc1cccc(NC(=O)CSc2cc(C)c(C#N)c3nc4ccccc4n23)c1`, the EC50 in test [1] is 6.87 µM (active).

On to `CC(C)(C)N(NS(=O)(=O)c1ccc(F)cc1)c1ccccc1`, for which, in test [1], the EC50 is > 260 µM (inactive).

As for `COc1cccc(NC(=O)N(C2CCCCC2)C(C)c2cccs2)c1` (centres undefined), the concentration for half-maximal inhibition (IC50) in test [4] is 8.59 µM (not active).

As for `CN1CCN(c2ccc(NC(=O)COc3ccccc3)cc2Cl)CC1`, the EC50 in test [2] was 0.214 µM (active); in test [3], 0.229 µM (active); in the test on H4, 66.9 µM (active).

As to `O=C1CN(c2ccccc2)C(=S)N1C(=O)c1ccccc1`, the EC50 in test [2] was 57.7 µM (active); in test [3] it was 106 µM (active); in the test with H4, 15.7 µM (inconclusive).

For `O=C1[C@@H]2Cc3c([nH]c4ccccc34)C(c3ccc([N+](=O)[O-])cc3)N2C(=O)CN1C1CC1` (some centres undefined), in test [1], the EC50 was > 260 µM (inactive).

Regarding `CC(Cc1ccccc1)/[N+]([O-])=C\c1ccc(C(F)(F)F)cc1` (centres undefined), the EC50 in test [2] was 1.2 µM (active); in test [3], 6.29 µM (active); with H4, 4.53 µM (active).

`CN1CCN(CCCNC(=O)c2cc3c(=O)n(C)c4ccccc4c3s2)CC1`: the 50% effective concentration (EC50) in test [2] is > 120 µM (not active); in test [3], 11.7 µM (active); in the test on H4, > 120 µM (not active).

As for `O=c1c2c(-c3cccs3)csc2ncn1-n1cccc1`, in test [4], the half-maximal inhibitory concentration (IC50) is reported as > 50 µM (not active).

Take `CC(C)(C)n1nc2c(c1NC(=O)c1cc([N+](=O)[O-])ccc1Cl)CS(=O)(=O)C2`: the half-maximal effective concentration (EC50) in test [2] is 17.8 µM (active); in test [3], 18.9 µM (active); with H4, > 120 µM (not active).

On to `CC(=O)Nc1ccc(NC(=O)Cn2nc([N+](=O)[O-])c(Br)c2C)cc1`, for which the half-inhibitory concentration (IC50) in test [4] is reported as 11.6 µM (not active).

For the compound `N=C(NOC(=O)c1cc(Cl)ccc1Cl)c1ccncc1`, the values for the EC50 (in test [2]; in test [3]; with H4) were 9.04 µM (active), 1.87 µM (active) and 28.1 µM (active), respectively.

In the case of `COc1ccc(CCNC(=O)C2CCCN(Cc3nc(-c4ccccc4C)oc3C)C2)cc1OC` (centres undefined), in test [1], the EC50 is > 260 µM (inactive).

Turning to `Cc1cccc(-c2cccc(NC(=O)C3CCCN(C(=O)c4cccnc4)C3)c2)c1` (centres undefined), the EC50 in test [1] is > 260 µM (inactive).

As for `COc1cc2c(c(OC)c1CC=C(C)C)C[C@H](c1ccc(O)cc1O)CO2` [GLYASPERIN D], in test [5], the cytotoxic concentration (CC50) was 15.3 µM (active).
